Reference: the supplement of paper PMC13207355

Columns and labels:
Details in all cases: exposure time: 72 h
E13 [1] = patient-derived glioblastoma stem cells of classical subtype; test: surviving fraction (nuclei count normalised to DMSO); higher = more cells surviving (less toxic)
E21 [2] = patient-derived glioblastoma stem cells of mesenchymal subtype; test: as above
E28 [3] = patient-derived glioblastoma stem cells of classical subtype; test: as above
E31 [4] = patient-derived glioblastoma stem cells of proneural subtype; test: as above
E34 [5] = patient-derived glioblastoma stem cells of proneural subtype; test: as above
E57 [6] = patient-derived glioblastoma stem cells of mesenchymal subtype; test: as above
FT3469 [7] = normal neural stem cell line; test: as above
E13 [8] = test: phenotypic distance (Euclidean, principal components) from DMSO controls (arbitrary units); higher = stronger morphological change
E21 [9] = test: as above
E28 [10] = test: as above
E31 [11] = test: as above
E34 [12] = test: as above
E57 [13] = test: as above
FT3469 [14] = test: as above
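Wherever phenotypic distance (Euclidean, principal components) from DMSO controls is given: cell Painting imaging in 384-well plates, CellProfiler features reduced to at least 20 principal components, Euclidean distance versus same-plate DMSO vehicle wells (0.1% v/v), median over six images per well.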
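Wherever surviving fraction (nuclei count normalised to DMSO) is given: nuclei counted by high-content imaging of Hoechst-stained cells in laminin-coated 384-well plates, relative to 0.1% DMSO vehicle wells, with staurosporine as cell-death control.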

SMILES: CC[C@@]1(O)C(=O)OCc2c1cc1n(c2=O)Cc2cc3c(CN(C)C)c(O)ccc3nc2-1 [Topotecan]
- surviving fraction (E13 [1]; 4.1 nM): 0.414
- surviving fraction (E13 [1]; 12.3 nM): 0.381
- surviving fraction (E13 [1]; 37 nM): 0.367
- surviving fraction (E13 [1]; 111.1 nM): 0.279
- surviving fraction (E13 [1]; 333.3 nM): 0.251
- surviving fraction (E13 [1]; 1000 nM): 0.206
- surviving fraction (E13 [1]; 3000 nM): 0.176
- surviving fraction (E21 [2]; 4.1 nM): 0.191
- surviving fraction (E21 [2]; 12.3 nM): 0.135
- surviving fraction (E21 [2]; 37 nM): 0.114
- surviving fraction (E21 [2]; 111.1 nM): 0.115
- surviving fraction (E21 [2]; 333.3 nM): 0.13
- surviving fraction (E21 [2]; 1000 nM): 0.113
- surviving fraction (E21 [2]; 3000 nM): 0.104
- surviving fraction (E28 [3]; 4.1 nM): 0.408
- surviving fraction (E28 [3]; 12.3 nM): 0.351
- surviving fraction (E28 [3]; 37 nM): 0.384
- surviving fraction (E28 [3]; 111.1 nM): 0.347
- surviving fraction (E28 [3]; 333.3 nM): 0.333
- surviving fraction (E28 [3]; 1000 nM): 0.288
- surviving fraction (E28 [3]; 3000 nM): 0.28
- surviving fraction (E31 [4]; 4.1 nM): 0.173
- surviving fraction (E31 [4]; 12.3 nM): 0.149
- surviving fraction (E31 [4]; 37 nM): 0.188
- surviving fraction (E31 [4]; 111.1 nM): 0.176
- surviving fraction (E31 [4]; 333.3 nM): 0.249
- surviving fraction (E31 [4]; 1000 nM): 0.17
- surviving fraction (E31 [4]; 3000 nM): 0.213
- surviving fraction (E34 [5]; 4.1 nM): 0.539
- surviving fraction (E34 [5]; 12.3 nM): 0.576
- surviving fraction (E34 [5]; 37 nM): 0.519
- surviving fraction (E34 [5]; 111.1 nM): 0.55
- surviving fraction (E34 [5]; 333.3 nM): 0.529
- surviving fraction (E34 [5]; 1000 nM): 0.519
- surviving fraction (E34 [5]; 3000 nM): 0.389
- surviving fraction (E57 [6]; 4.1 nM): 0.321
- surviving fraction (E57 [6]; 12.3 nM): 0.211
- surviving fraction (E57 [6]; 37 nM): 0.175
- surviving fraction (E57 [6]; 111.1 nM): 0.164
- surviving fraction (E57 [6]; 333.3 nM): 0.145
- surviving fraction (E57 [6]; 1000 nM): 0.129
- surviving fraction (E57 [6]; 3000 nM): 0.109
- surviving fraction (FT3469 [7]; 4.1 nM): 0.622
- surviving fraction (FT3469 [7]; 12.3 nM): 0.625
- surviving fraction (FT3469 [7]; 37 nM): 0.634
- surviving fraction (FT3469 [7]; 111.1 nM): 0.653
- surviving fraction (FT3469 [7]; 333.3 nM): 0.629
- surviving fraction (FT3469 [7]; 1000 nM): 0.446
- surviving fraction (FT3469 [7]; 3000 nM): 0.464
- phenotypic distance (E13 [8]; 4.1 nM): 5.03
- phenotypic distance (E13 [8]; 12.3 nM): 5.52
- phenotypic distance (E13 [8]; 37 nM): 5.83
- phenotypic distance (E13 [8]; 111.1 nM): 6.68
- phenotypic distance (E13 [8]; 333.3 nM): 6.45
- phenotypic distance (E13 [8]; 1000 nM): 6.68
- phenotypic distance (E13 [8]; 3000 nM): 7.15
- phenotypic distance (E21 [9]; 4.1 nM): 4.95
- phenotypic distance (E21 [9]; 12.3 nM): 5.78
- phenotypic distance (E21 [9]; 37 nM): 6.25
- phenotypic distance (E21 [9]; 111.1 nM): 6.93
- phenotypic distance (E21 [9]; 333.3 nM): 5.67
- phenotypic distance (E21 [9]; 1000 nM): 5.76
- phenotypic distance (E21 [9]; 3000 nM): 5.07
- phenotypic distance (E28 [10]; 4.1 nM): 3.44
- phenotypic distance (E28 [10]; 12.3 nM): 3.75
- phenotypic distance (E28 [10]; 37 nM): 3.05
- phenotypic distance (E28 [10]; 111.1 nM): 3.65
- phenotypic distance (E28 [10]; 333.3 nM): 3.55
- phenotypic distance (E28 [10]; 1000 nM): 4.27
- phenotypic distance (E28 [10]; 3000 nM): 4.08
- phenotypic distance (E31 [11]; 4.1 nM): 3.31
- phenotypic distance (E31 [11]; 12.3 nM): 3.53
- phenotypic distance (E31 [11]; 37 nM): 2.95
- phenotypic distance (E31 [11]; 111.1 nM): 3.38
- phenotypic distance (E31 [11]; 333.3 nM): 3.17
- phenotypic distance (E31 [11]; 1000 nM): 3.49
- phenotypic distance (E31 [11]; 3000 nM): 3.68
- phenotypic distance (E34 [12]; 4.1 nM): 3.5
- phenotypic distance (E34 [12]; 12.3 nM): 2.99
- phenotypic distance (E34 [12]; 37 nM): 3.02
- phenotypic distance (E34 [12]; 111.1 nM): 2.09
- phenotypic distance (E34 [12]; 333.3 nM): 2.86
- phenotypic distance (E34 [12]; 1000 nM): 4.13
- phenotypic distance (E34 [12]; 3000 nM): 3.32
- phenotypic distance (E57 [13]; 4.1 nM): 6.01
- phenotypic distance (E57 [13]; 12.3 nM): 7.66
- phenotypic distance (E57 [13]; 37 nM): 7.47
- phenotypic distance (E57 [13]; 111.1 nM): 7.5
- phenotypic distance (E57 [13]; 333.3 nM): 7.56
- phenotypic distance (E57 [13]; 1000 nM): 6.96
- phenotypic distance (E57 [13]; 3000 nM): 7.64
- phenotypic distance (FT3469 [14]; 4.1 nM): 2.65
- phenotypic distance (FT3469 [14]; 12.3 nM): 1.91
- phenotypic distance (FT3469 [14]; 37 nM): 2.54
- phenotypic distance (FT3469 [14]; 111.1 nM): 2.79
- phenotypic distance (FT3469 [14]; 333.3 nM): 2.66
- phenotypic distance (FT3469 [14]; 1000 nM): 3.43
- phenotypic distance (FT3469 [14]; 3000 nM): 3.06

SMILES: CCN1CCN(C(=O)Cc2ccc(Nc3ncc(F)c(Nc4ccc(C(=O)Nc5ccccc5Cl)cc4)n3)cc2)CC1 [Aurora-A Inhibitor I]
- surviving fraction (E13 [1]; 4.1 nM): 0.898
- surviving fraction (E13 [1]; 12.3 nM): 0.858
- surviving fraction (E13 [1]; 37 nM): 0.898
- surviving fraction (E13 [1]; 111.1 nM): 0.786
- surviving fraction (E13 [1]; 333.3 nM): 0.755
- surviving fraction (E13 [1]; 1000 nM): 0.643
- surviving fraction (E13 [1]; 3000 nM): 0.588
- surviving fraction (E21 [2]; 4.1 nM): 0.962
- surviving fraction (E21 [2]; 12.3 nM): 0.968
- surviving fraction (E21 [2]; 37 nM): 0.937
- surviving fraction (E21 [2]; 111.1 nM): 1.04
- surviving fraction (E21 [2]; 333.3 nM): 0.873
- surviving fraction (E21 [2]; 1000 nM): 0.369
- surviving fraction (E21 [2]; 3000 nM): 0.0545
- surviving fraction (E28 [3]; 4.1 nM): 0.826
- surviving fraction (E28 [3]; 12.3 nM): 1.04
- surviving fraction (E28 [3]; 37 nM): 0.98
- surviving fraction (E28 [3]; 111.1 nM): 1.01
- surviving fraction (E28 [3]; 333.3 nM): 0.732
- surviving fraction (E28 [3]; 1000 nM): 0.295
- surviving fraction (E28 [3]; 3000 nM): 0.265
- surviving fraction (E31 [4]; 4.1 nM): 0.968
- surviving fraction (E31 [4]; 12.3 nM): 0.879
- surviving fraction (E31 [4]; 37 nM): 0.989
- surviving fraction (E31 [4]; 111.1 nM): 0.819
- surviving fraction (E31 [4]; 333.3 nM): 0.602
- surviving fraction (E31 [4]; 1000 nM): 0.0846
- surviving fraction (E31 [4]; 3000 nM): 0.0618
- surviving fraction (E34 [5]; 4.1 nM): 0.935
- surviving fraction (E34 [5]; 12.3 nM): 0.848
- surviving fraction (E34 [5]; 37 nM): 0.988
- surviving fraction (E34 [5]; 111.1 nM): 0.958
- surviving fraction (E34 [5]; 333.3 nM): 0.736
- surviving fraction (E34 [5]; 1000 nM): 0.635
- surviving fraction (E34 [5]; 3000 nM): 0.198
- surviving fraction (E57 [6]; 4.1 nM): 0.996
- surviving fraction (E57 [6]; 12.3 nM): 0.998
- surviving fraction (E57 [6]; 37 nM): 0.968
- surviving fraction (E57 [6]; 111.1 nM): 1.03
- surviving fraction (E57 [6]; 333.3 nM): 0.905
- surviving fraction (E57 [6]; 1000 nM): 0.513
- surviving fraction (E57 [6]; 3000 nM): 0.0372
- surviving fraction (FT3469 [7]; 4.1 nM): 1.01
- surviving fraction (FT3469 [7]; 12.3 nM): 0.895
- surviving fraction (FT3469 [7]; 37 nM): 0.866
- surviving fraction (FT3469 [7]; 111.1 nM): 0.883
- surviving fraction (FT3469 [7]; 333.3 nM): 1.04
- surviving fraction (FT3469 [7]; 1000 nM): 0.483
- surviving fraction (FT3469 [7]; 3000 nM): 0.394
- phenotypic distance (E13 [8]; 4.1 nM): 0.68
- phenotypic distance (E13 [8]; 12.3 nM): 0.752
- phenotypic distance (E13 [8]; 37 nM): 1.14
- phenotypic distance (E13 [8]; 111.1 nM): 1.23
- phenotypic distance (E13 [8]; 333.3 nM): 1.57
- phenotypic distance (E13 [8]; 1000 nM): 2.01
- phenotypic distance (E13 [8]; 3000 nM): 2.52
- phenotypic distance (E21 [9]; 4.1 nM): 0.463
- phenotypic distance (E21 [9]; 12.3 nM): 0.798
- phenotypic distance (E21 [9]; 37 nM): 0.695
- phenotypic distance (E21 [9]; 111.1 nM): 0.686
- phenotypic distance (E21 [9]; 333.3 nM): 0.809
- phenotypic distance (E21 [9]; 1000 nM): 3.84
- phenotypic distance (E21 [9]; 3000 nM): 8.57
- phenotypic distance (E28 [10]; 4.1 nM): 0.837
- phenotypic distance (E28 [10]; 12.3 nM): 1.2
- phenotypic distance (E28 [10]; 37 nM): 0.715
- phenotypic distance (E28 [10]; 111.1 nM): 0.655
- phenotypic distance (E28 [10]; 333.3 nM): 1.3
- phenotypic distance (E28 [10]; 1000 nM): 5.35
- phenotypic distance (E28 [10]; 3000 nM): 7.22
- phenotypic distance (E31 [11]; 4.1 nM): 0.624
- phenotypic distance (E31 [11]; 12.3 nM): 0.904
- phenotypic distance (E31 [11]; 37 nM): 0.48
- phenotypic distance (E31 [11]; 111.1 nM): 0.975
- phenotypic distance (E31 [11]; 333.3 nM): 1.09
- phenotypic distance (E31 [11]; 1000 nM): 6.37
- phenotypic distance (E31 [11]; 3000 nM): 11.8
- phenotypic distance (E34 [12]; 4.1 nM): 0.739
- phenotypic distance (E34 [12]; 12.3 nM): 0.951
- phenotypic distance (E34 [12]; 37 nM): 0.479
- phenotypic distance (E34 [12]; 111.1 nM): 0.728
- phenotypic distance (E34 [12]; 333.3 nM): 0.971
- phenotypic distance (E34 [12]; 1000 nM): 1.96
- phenotypic distance (E34 [12]; 3000 nM): 9.28
- phenotypic distance (E57 [13]; 4.1 nM): 0.556
- phenotypic distance (E57 [13]; 12.3 nM): 1.22
- phenotypic distance (E57 [13]; 37 nM): 0.495
- phenotypic distance (E57 [13]; 111.1 nM): 0.921
- phenotypic distance (E57 [13]; 333.3 nM): 1.17
- phenotypic distance (E57 [13]; 1000 nM): 3.49
- phenotypic distance (E57 [13]; 3000 nM): 11.6
- phenotypic distance (FT3469 [14]; 4.1 nM): 0.518
- phenotypic distance (FT3469 [14]; 12.3 nM): 0.954
- phenotypic distance (FT3469 [14]; 37 nM): 0.712
- phenotypic distance (FT3469 [14]; 111.1 nM): 0.933
- phenotypic distance (FT3469 [14]; 333.3 nM): 0.835
- phenotypic distance (FT3469 [14]; 1000 nM): 1.89
- phenotypic distance (FT3469 [14]; 3000 nM): 13.2
